For 21 compounds, TGI results are on record in PubChem BioAssay (NCI).

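Cells were grown in 96-well plates and exposed to each compound for 48 hours at five concentrations; endpoints were interpolated linearly between bracketing concentrations, or set to the highest concentration if not reached. TGI denotes the concentration required for complete inhibition of growth.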

Among the test systems are MOLT-4 leukemia; SK-MEL-5 melanoma; U251 CNS; SF-295 CNS; COLO 205 colon; M14 melanoma; CCRF-CEM leukemia; HL-60(TB) leukemia; NCI/ADR-RES ovarian; A498 renal; CAKI-1 renal; MDA-MB-231 breast.
Test in all cases: inhibition of tumour cell growth, NCI panel, 48 h

As for `c1ccc2cc3c(cc2c1)nc1ccccn13`, the TGI with MOLT-4 leukemia, in the assay on SK-MEL-5 melanoma, in the assay on U251 CNS, with SF-295 CNS, in the assay with COLO 205 colon and in the assay with M14 melanoma was greater than 100 µM throughout. Further, the TGI with CCRF-CEM leukemia, with HL-60(TB) leukemia and in the assay with NCI/ADR-RES ovarian was greater than 100 µM each time.

As to `Cc1ccc(S(=O)(=O)c2c(N)n(CCN(C)C)c3nc4ccccc4nc23)cc1`, the TGI with MOLT-4 leukemia, in the assay with SK-MEL-5 melanoma, with U251 CNS, in the assay with SF-295 CNS, in the assay with COLO 205 colon and in the assay with M14 melanoma was greater than 100 µM in each case. Besides, the TGI in the assay with CCRF-CEM leukemia and in the assay with HL-60(TB) leukemia was greater than 100 µM in each case.

As to `COc1ccc(CCNCCCC2c3ccccc3-c3ccccc32)cc1OC`, the TGI in the assay with MOLT-4 leukemia came out at 41.8 µM; in the assay with SK-MEL-5 melanoma, 23.3 µM; with U251 CNS it was 26.2 µM; with A498 renal, 19.5 µM; with SF-295 CNS it was 29.2 µM; in the assay with COLO 205 colon it was 3.4 µM. Moreover, the TGI with M14 melanoma worked out at 11.8 µM; with CCRF-CEM leukemia, 49 µM; with CAKI-1 renal it was 33.4 µM; in the assay on HL-60(TB) leukemia it was 47.7 µM; with NCI/ADR-RES ovarian, 33.2 µM.

With `N#Cc1sc2c(c1O)c(=O)n(-c1ccccc1)c(=S)n2-c1ccccc1`, the TGI in the assay with SK-MEL-5 melanoma, in the assay with U251 CNS, in the assay with SF-295 CNS, with COLO 205 colon, in the assay on M14 melanoma and with MDA-MB-231 breast was greater than 100 µM throughout. In the assay on HL-60(TB) leukemia, this compound returned a TGI greater than 100 µM.

In the case of `CC(CCCOC(c1ccccc1)(c1ccccc1)c1ccccc1)OC(=O)Nc1ccccc1` (stereo not given), the TGI in the assay with MOLT-4 leukemia was 24 µM; in the assay on SK-MEL-5 melanoma it was 27.1 µM; with U251 CNS it was 26.8 µM; with SF-295 CNS, 25.3 µM; with COLO 205 colon, 32.3 µM; in the assay on M14 melanoma it was 27.2 µM. Moreover, the TGI in the assay on CCRF-CEM leukemia came out at 33.1 µM; in the assay on CAKI-1 renal, 26.8 µM; in the assay on HL-60(TB) leukemia, 31.4 µM.

Turning to `O=[N+]([O-])c1cccc(C2=NOC3C4CCC(C4)C23)c1` (stereo not given), the TGI with MOLT-4 leukemia, in the assay on SK-MEL-5 melanoma, in the assay with U251 CNS, in the assay with A498 renal, in the assay with SF-295 CNS and with COLO 205 colon was greater than 100 µM in each case. Further, the TGI in the assay on M14 melanoma is greater than 100 µM.

Turning to `COc1ccc(CCc2nccn2C)cc1OC`, the TGI in the assay with MOLT-4 leukemia, in the assay with SK-MEL-5 melanoma, with A498 renal, in the assay with SF-295 CNS, in the assay on COLO 205 colon and with M14 melanoma was greater than 100 µM throughout. Further, the TGI with CCRF-CEM leukemia, in the assay with CAKI-1 renal, in the assay on HL-60(TB) leukemia and with NCI/ADR-RES ovarian was greater than 100 µM each time.

As to `O=C(CC1C(=O)c2ccccc2C1=C1C(=O)c2ccccc2C1=O)c1ccccc1` (stereo not given), the TGI in the assay on MOLT-4 leukemia, in the assay on SK-MEL-5 melanoma, with U251 CNS, in the assay with A498 renal, in the assay on SF-295 CNS and with COLO 205 colon was greater than 100 µM throughout. In addition, the TGI with M14 melanoma, with CCRF-CEM leukemia, in the assay with CAKI-1 renal and in the assay on HL-60(TB) leukemia was greater than 100 µM each time.

For `CC1=C(C(=O)Nc2ccc([N+](=O)[O-])cc2)C(c2ccccc2F)C(C(=O)Nc2ccc([N+](=O)[O-])cc2)=C(C)N1`, the TGI came to 27.4 µM in the assay with MOLT-4 leukemia; 40.6 µM in the assay on SK-MEL-5 melanoma; 76.6 µM in the assay on U251 CNS; 34.9 µM in the assay with A498 renal; 63 µM in the assay on SF-295 CNS; 29.7 µM in the assay on COLO 205 colon. In addition, the TGI in the assay on M14 melanoma is 49.4 µM; in the assay with CCRF-CEM leukemia, 48.7 µM; in the assay with CAKI-1 renal, 68.9 µM; with HL-60(TB) leukemia it was 24.7 µM.

As for `COc1ccccc1CNC(=O)[C@H](Cc1ccc(O)cn1)NC(C)=O`, the TGI with SK-MEL-5 melanoma, with U251 CNS, in the assay on A498 renal, in the assay with SF-295 CNS, in the assay with COLO 205 colon and in the assay on M14 melanoma was greater than 100 µM throughout. Besides, the TGI in the assay with CCRF-CEM leukemia, in the assay on CAKI-1 renal, in the assay on HL-60(TB) leukemia and in the assay on NCI/ADR-RES ovarian was greater than 100 µM throughout.

On to `CCC(=O)N/N=C(\C=C\c1cccc(O)c1)c1sc(Nc2ccc(C)cc2[N+](=O)[O-])nc1C`, for which the TGI in the assay with MOLT-4 leukemia, with SK-MEL-5 melanoma, in the assay with U251 CNS, in the assay on A498 renal, in the assay on SF-295 CNS and in the assay on COLO 205 colon was greater than 100 µM each time. Moreover, the TGI in the assay with M14 melanoma, with CCRF-CEM leukemia, with CAKI-1 renal and in the assay with HL-60(TB) leukemia was greater than 100 µM throughout.

Take `CCOC(OC1=C(C#N)CCCC1)C(C)[Se]c1ccccc1` (stereo not given): the TGI in the assay on MOLT-4 leukemia was 79.9 µM; in the assay on SK-MEL-5 melanoma it was 55.6 µM; in the assay on U251 CNS, 32 µM; in the assay with A498 renal, greater than 100 µM; in the assay with SF-295 CNS, greater than 100 µM; in the assay with COLO 205 colon, greater than 100 µM. Also, the TGI was greater than 100 µM with M14 melanoma, 65 µM with CCRF-CEM leukemia, greater than 100 µM in the assay on CAKI-1 renal and 49.4 µM in the assay on HL-60(TB) leukemia.

For the compound `COC(=O)c1ccc(NCc2cc(O)ccc2O)cc1`, the TGI was found to be 31.5 µM in the assay with MOLT-4 leukemia; 23.7 µM in the assay with SK-MEL-5 melanoma; 24.5 µM with U251 CNS; 29.7 µM in the assay on A498 renal; 35 µM in the assay on SF-295 CNS; 29 µM in the assay on COLO 205 colon. Also, the TGI with M14 melanoma was found to be 39.5 µM; in the assay with CCRF-CEM leukemia, 10.8 µM; in the assay with CAKI-1 renal, 37.4 µM; in the assay with HL-60(TB) leukemia, 8.58 µM; in the assay with NCI/ADR-RES ovarian, 36.9 µM.

With `CCc1cc2c(oc3cc(C)ccc32)c(=O)n1C`, the TGI in the assay on MOLT-4 leukemia, with U251 CNS, in the assay with SF-295 CNS, in the assay with M14 melanoma, with MDA-MB-231 breast and in the assay on CCRF-CEM leukemia was greater than 10 µM in each case. In addition, in the assay with HL-60(TB) leukemia, the TGI is greater than 10 µM.

Take `Cc1ccccc1N=NC(C(=O)c1ccccc1)C(=O)c1ccccc1`: the TGI in the assay on MOLT-4 leukemia was 74.3 µM; in the assay on SK-MEL-5 melanoma, 55.9 µM; with U251 CNS, greater than 100 µM; in the assay on A498 renal, greater than 100 µM; in the assay on SF-295 CNS it was greater than 100 µM; with COLO 205 colon, greater than 100 µM. For the same compound, the TGI was determined as 39.1 µM in the assay with M14 melanoma, 53.9 µM with CCRF-CEM leukemia, 96.6 µM with CAKI-1 renal and 37.9 µM in the assay with HL-60(TB) leukemia.

On to `Cc1ccc(NC(=O)C(=O)Cc2cc[n+]([O-])cc2)cc1`, for which the TGI with MOLT-4 leukemia, with SK-MEL-5 melanoma, in the assay with U251 CNS, in the assay on A498 renal, in the assay on SF-295 CNS and in the assay on COLO 205 colon was greater than 100 µM in each case. Also, the TGI in the assay with M14 melanoma, in the assay with CCRF-CEM leukemia, in the assay on CAKI-1 renal and in the assay with HL-60(TB) leukemia was greater than 100 µM each time.

In the case of `Cc1cc(N(CCC#N)CCC#N)ccc1C=Nc1ccc(C(=O)NN2C(=O)/C(=C/c3ccc(N(CCC#N)CCC#N)cc3)N=C2c2cc([N+](=O)[O-])ccc2Cl)cc1`, the TGI with SK-MEL-5 melanoma, in the assay with U251 CNS, in the assay on A498 renal, in the assay on COLO 205 colon, in the assay on M14 melanoma and in the assay on CCRF-CEM leukemia was greater than 100 µM throughout. Moreover, the TGI with CAKI-1 renal and in the assay with HL-60(TB) leukemia was greater than 100 µM in each case.

As to `Cc1cc(Cl)ccc1C1OC(=O)c2c1ccc1ccccc21` (stereo not given), the TGI in the assay on MOLT-4 leukemia, in the assay with SK-MEL-5 melanoma, in the assay on U251 CNS, with A498 renal, in the assay with SF-295 CNS and with COLO 205 colon was greater than 100 µM each time. Besides, the TGI in the assay with M14 melanoma, in the assay on CCRF-CEM leukemia, in the assay on CAKI-1 renal and in the assay on HL-60(TB) leukemia was greater than 100 µM each time.

As to `CC(=O)C1=CCC2c3[nH]c4ccccc4c3CCN2C1` (stereo not given), the TGI in the assay on MOLT-4 leukemia, with SK-MEL-5 melanoma, with U251 CNS, with A498 renal, with SF-295 CNS and in the assay with COLO 205 colon was greater than 100 µM throughout. Further, the TGI in the assay on M14 melanoma, with CCRF-CEM leukemia and in the assay on HL-60(TB) leukemia was greater than 100 µM in each case.

Turning to `CCC(=O)C(C(C)/C=C/CCSc1ccccc1)C(O)CCCCCC(=O)OC` (stereo not given), the TGI in the assay on MOLT-4 leukemia is 81 µM; with SK-MEL-5 melanoma, greater than 100 µM; in the assay with U251 CNS, greater than 100 µM; with SF-295 CNS, greater than 100 µM; with COLO 205 colon, greater than 100 µM; in the assay on M14 melanoma it was greater than 100 µM. The TGI with MDA-MB-231 breast, in the assay with CCRF-CEM leukemia, with CAKI-1 renal and in the assay with NCI/ADR-RES ovarian was greater than 100 µM in each case.

Take `COc1ccc2c(c1)CCC(OS(=O)(=O)CC13CCC(CC1=O)C3(C)C)C2=O` (stereo not given): the TGI with MOLT-4 leukemia is 55.9 µM; in the assay with SK-MEL-5 melanoma, 39.2 µM; in the assay with U251 CNS, 43.1 µM; with A498 renal, 39.1 µM; in the assay on COLO 205 colon, 91.9 µM; in the assay with M14 melanoma, greater than 100 µM. Besides, the TGI with CCRF-CEM leukemia was greater than 100 µM; in the assay with CAKI-1 renal, greater than 100 µM; with HL-60(TB) leukemia, 47.5 µM.
